Data on 58 compounds can be found in patent publication US8299070B2, “Indole compounds and pharmaceutical use thereof” (Japan Tobacco Inc., priority 2009, dated 2012).

Some results are limits rather than exact numbers.

The target in the experiment is T1, hITK enzyme (FLAG-tagged full-length hITK) (Homo sapiens, UniProt Q08881).
T1 construct: strongly expressing FLAG-tagged full-length hITK in Sf9 cells; FLAG; made in house; host or cells: Sf9 insect cells (ITK); Escherichia coli (GST-SLP76 substrate)
T1 sequence (Q08881 1-620): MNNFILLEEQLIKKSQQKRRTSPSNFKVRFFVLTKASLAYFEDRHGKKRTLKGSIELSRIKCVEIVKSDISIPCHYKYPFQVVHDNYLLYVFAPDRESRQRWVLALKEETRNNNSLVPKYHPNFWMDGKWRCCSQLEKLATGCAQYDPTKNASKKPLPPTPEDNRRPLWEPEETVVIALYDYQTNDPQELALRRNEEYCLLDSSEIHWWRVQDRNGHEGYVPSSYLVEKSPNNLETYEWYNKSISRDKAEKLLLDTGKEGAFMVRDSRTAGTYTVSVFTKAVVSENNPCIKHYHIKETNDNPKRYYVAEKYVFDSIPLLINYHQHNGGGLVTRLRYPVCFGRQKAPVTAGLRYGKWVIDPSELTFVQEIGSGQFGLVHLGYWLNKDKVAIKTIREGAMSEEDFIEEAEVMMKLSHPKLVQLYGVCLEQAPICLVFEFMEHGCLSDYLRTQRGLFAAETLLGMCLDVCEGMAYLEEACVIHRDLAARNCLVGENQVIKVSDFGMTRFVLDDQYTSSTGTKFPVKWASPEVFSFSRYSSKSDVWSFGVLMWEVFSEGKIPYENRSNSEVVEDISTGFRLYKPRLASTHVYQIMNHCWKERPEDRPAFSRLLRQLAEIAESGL
Put plainly: ITK inhibitory activity (HTRF kinase assay, biotinylated GST-SLP76 substrate). Particulars: IC50 calculated from the 2 test compound concentrations sandwiching 50% ITK inhibitory rate. In kind it is biochemical. In outline: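 Sf9-expressed hITK (50 ng/mL enzyme solution) reacted 10 min at RT in MOPS pH 7.0, 10 mmol/L MgCl2, 1 mmol/L DTT with E. coli SLP76 aa95–175 substrate; substrate solution held 100 µmol/L ATP (6 µmol/L for selected compounds). HTRF 665/620 ratio, blank-corrected; IC50 interpolated between two concentrations bracketing 50% inhibition.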
As to `COCCN(c1ccc2cc(-c3n[nH]c4c3CCC(C)(C)C4)[nH]c2c1)C(=O)[C@H]1CC[C@@H](O)CC1` [Example 259], the IC50 was 3 nM. For `Cc1cc(C(=O)N(C)c2ccc3cc(-c4n[nH]c5c4CCC(C)(C)C5)[nH]c3c2)no1` [Example 59], the IC50 was 7 nM. Regarding `CN(C)CCCN(C(=O)C1CCCO1)c1ccc2cc(-c3n[nH]c4c3CCC(C)(C)C4)[nH]c2c1` (stereo not shown) [Example 224], the IC50 was 1 nM.

As to `Cn1cncc1CNC(=O)c1ccc2[nH]c(-c3n[nH]c4c3CCC(C)(C)C4)cc2c1` [Example 329], the IC50 was 13 nM. To `CC1(C)CCc2c(-c3cc4cc(C(=O)N5CCCCC5)ccc4[nH]3)n[nH]c2C1` [Example 333] belongs 106 nM; to `CN(C(=O)Cn1cccn1)c1ccc2cc(-c3n[nH]c4c3CCC(C)(C)C4)[nH]c2c1` [Example 157], 1 nM.

As for `CN(C)CCCN(C(=O)C1CCOC1)c1ccc2cc(-c3n[nH]c4c3CCC(C)(C)C4)[nH]c2c1` (stereo not shown) [Example 225], the IC50 was 2 nM. To `CC1(C)CCc2c(-c3cc4ccc(NC(=O)c5ccccc5)cc4[nH]3)n[nH]c2C1` [Example 27] belongs 327 nM. Take `CCC(=O)N(C)c1ccc2cc(-c3n[nH]c4c3CC(OC)C(C)(C)C4)[nH]c2c1` (stereo not shown) [Example 372]: the half-inhibitory concentration (IC50) is 11 nM. To `COCC(C(C)C)N(C)C(=O)c1ccc2cc(-c3n[nH]c4c3CCC(C)(C)C4)[nH]c2c1` (stereo not shown) [Example 26] belongs 85 nM; to `CO[C@H]1CN(C(=O)c2ccc3[nH]c(-c4n[nH]c5c4CCC(C)(C)C5)cc3c2)C[C@H]1OC` [Example 338], 33 nM. Consider `CCN(C(C)=O)c1ccc2cc(-c3n[nH]c4c3CCC(C)(C)C4)[nH]c2c1` [Example 2, N-[2-(6,6-dimethyl-4,5,6,7-tetrahydro-1H-indazol-3-yl)-1H-indol-6-yl]-N-ethylacetamide], for which the half-maximal inhibitory concentration (IC50) is 5 nM. For the compound `CC(NC(=O)c1ccc2cc(-c3n[nH]c4c3CCC(C)(C)C4)[nH]c2c1)C(C)(C)C` (stereo not shown) [Example 13], the half-maximal inhibitory concentration (IC50) is 99 nM.

As to `CC1(C)CCc2c(-c3cc4ccc(N5CCC(CO)(C6CCCCC6)C5=O)cc4[nH]3)n[nH]c2C1` (stereo not shown) [Example 251], the IC50 was 34 nM.

For `C[C@@H]1CN(CC(=O)N(C)c2ccc3cc(-c4n[nH]c5c4CCC(C)(C)C5)[nH]c3c2)C[C@H](C)O1` [Example 119], the IC50 was 3 nM. In the case of `CC(N(C)C(=O)c1ccc2[nH]c(-c3n[nH]c4c3CCC(C)(C)C4)cc2c1)C(C)(C)C` (stereo not shown) [Example 300], the IC50 is 221 nM. Turning to `CC(C)C(O)C(=O)N(C)c1ccc2cc(-c3n[nH]c4c3CCC(C)(C)C4)[nH]c2c1` (stereo not shown) [Example 67], the concentration for half-maximal inhibition (IC50) was 4 nM. To `CCN(c1ccc2cc(-c3n[nH]c4c3CCC(C)(C)C4)[nH]c2c1)C(=O)[C@H]1CC[C@@H](OC)CC1` [Example 266] belongs 7 nM; to `CC1(C)CCc2c(-c3cc4cc(C(=O)N5C[C@@H](O)[C@@H](O)C5)ccc4[nH]3)n[nH]c2C1` [Example 335], 26 nM. To `CN(C(=O)CO)c1ccc2cc(-c3n[nH]c4c3CCC(C)(C)C4)[nH]c2c1` [Example 35] belongs 5 nM; to `CN(C(=O)CN1CCCCCC1=O)c1ccc2cc(-c3n[nH]c4c3CCC(C)(C)C4)[nH]c2c1` [Example 127], 1 nM; to `CC(C)CN(C)C(=O)c1ccc2cc(-c3n[nH]c4c3CCC(C)(C)C4)[nH]c2c1` [Example 17], 5 nM. Turning to `CC1COCCN1CC(=O)N(C)c1ccc2cc(-c3n[nH]c4c3CCC(C)(C)C4)[nH]c2c1` (stereo not shown) [Example 145], the IC50 was 3 nM.

Regarding `CO[C@H]1CC[C@@H](C(=O)N(C)c2ccc3cc(-c4n[nH]c5c4CCC(C)(CO)C5)[nH]c3c2)CC1` (stereo partly shown) [Example 346], the IC50 is 5 nM.

Turning to `C[C@@H](C(=O)Nc1ccc2cc(-c3n[nH]c4c3CCC(C)(C)C4)[nH]c2c1)N1CCOCC1` [Example 375], the IC50 was 110 nM.

Take `CC(C)(C)CNC(=O)c1ccc2cc(-c3n[nH]c4c3CCC(C)(C)C4)[nH]c2c1` [Example 11]: the IC50 was 36 nM. Turning to `CN(C)CCN(C(=O)C1CCOC1)c1ccc2cc(-c3n[nH]c4c3CCC(C)(C)C4)[nH]c2c1` (stereo not shown) [Example 217], the 50% inhibitory concentration (IC50) was less than 3 nM. As for `CC1(C)CCc2c(-c3cc4cc(C(=O)N5CCCC(O)C5)ccc4[nH]3)n[nH]c2C1` (stereo not shown) [Example 301], the 50% inhibitory concentration (IC50) is 37 nM. For `CC1(C)CCc2c(-c3cc4ccc(N(CCO)C(=O)C5CCCCC5)cc4[nH]3)n[nH]c2C1` [Example 239], the 50% inhibitory concentration (IC50) is 5 nM. In the case of `CC1(C)CCc2c(-c3cc4ccc(N5CCC(C)(CO)C5=O)cc4[nH]3)n[nH]c2C1` (stereo not shown) [Example 230], the IC50 is 25 nM. `COCCN(C(=O)CN1CC(C)(C)OCC1=O)c1ccc2cc(-c3n[nH]c4c3CCC(C)(C)C4)[nH]c2c1` [Example 278]: the IC50 was 1 nM. Turning to `CN(C)CCCN(C(=O)C1CCCCC1)c1ccc2cc(-c3n[nH]c4c3CCC(C)(C)C4)[nH]c2c1` [Example 218], the half-maximal inhibitory concentration (IC50) was less than 3 nM. For `COCC(C)C(=O)N(C)c1ccc2cc(-c3n[nH]c4c3CCC(C)(C)C4)[nH]c2c1` (stereo not shown) [Example 58], the half-maximal inhibitory concentration (IC50) was 6 nM. For `CN(C(=O)CN1CC(O)CC1=O)c1ccc2cc(-c3n[nH]c4c3CCC(C)(C)C4)[nH]c2c1` (stereo not shown) [Example 164], the IC50 is 3 nM. For `CN(C(=O)CN1CCC[C@H](O)C1)c1ccc2cc(-c3n[nH]c4c3CCC(C)(C)C4)[nH]c2c1` [Example 109], the IC50 is 6 nM.

With `CN(C)CCCN(C(=O)C1CCOCC1)c1ccc2cc(-c3n[nH]c4c3CCC(C)(C)C4)[nH]c2c1` [Example 223], the IC50 is 5 nM. With `CC[C@H](C(=O)N(C)c1ccc2cc(-c3n[nH]c4c3CCC(C)(C)C4)[nH]c2c1)N1CCOCC1` [Example 191], the half-maximal inhibitory concentration (IC50) was 7 nM.

As for `CC1(C)CCc2c(-c3cc4ccc(C(=O)N5CCOCC5)cc4[nH]3)n[nH]c2C1` [Example 19], the IC50 is 23 nM. In the case of `COCCN(C(=O)CN1C[C@@H](C)OCC1=O)c1ccc2cc(-c3n[nH]c4c3CCC(C)(C)C4)[nH]c2c1` [Example 283], the half-inhibitory concentration (IC50) is 2 nM. Regarding `CO[C@@H]1CCCN(C(C)C(=O)N(C)c2ccc3cc(-c4n[nH]c5c4CCC(C)(C)C5)[nH]c3c2)C1` (stereo partly shown) [Example 117], the IC50 was 6 nM. In the case of `CC(C(=O)N(C)c1ccc2cc(-c3n[nH]c4c3CCC(C)(C)C4)[nH]c2c1)N1CCC(O)CC1` (stereo not shown) [Example 108], the IC50 was 15 nM.

As for `CC(C)OCCNC(=O)c1ccc2[nH]c(-c3n[nH]c4c3CCC(C)(C)C4)cc2c1` [Example 307], the concentration for half-maximal inhibition (IC50) is 61 nM. Turning to `CCC(=O)N(C)CC(=O)N(CC)c1ccc2cc(-c3n[nH]c4c3CCC(C)(C)C4)[nH]c2c1` [Example 292], the IC50 was 2 nM. For the compound `COCCN(C(=O)C(C)C1CCOCC1)c1ccc2cc(-c3n[nH]c4c3CCC(C)(C)C4)[nH]c2c1` (stereo not shown) [Example 264], the IC50 is 10 nM.

For the compound `CC1COCC(=O)N1C(C)C(=O)N(C)c1ccc2cc(-c3n[nH]c4c3CCC(C)(C)C4)[nH]c2c1` (stereo not shown) [Example 152], the IC50 is 14 nM. The result for `CN(C(=O)C1CCOCC1)c1ccc2[nH]c(-c3n[nH]c4c3CCC(C)(C)C4)cc2c1` [Example 341] reads 333 nM; that for `CN(C(=O)CC1CCCOC1)c1ccc2cc(-c3n[nH]c4c3CCC(C)(C)C4)[nH]c2c1` (stereo not shown) [Example 103], 3 nM; that for `CN(C(=O)CC1CCOCC1)c1ccc2cc(-c3n[nH]c4c3CCC(C)(C)C4)[nH]c2c1` [Example 94], 4 nM. On to `CN(C(=O)C(O)C1CCOCC1)c1ccc2cc(-c3n[nH]c4c3CCC(C)(C)C4)[nH]c2c1` (stereo not shown) [Example 95], for which the IC50 was 3 nM. In the case of `CC1(C)CCc2c(-c3cc4ccc(C(=O)N5CCC(O)CC5)cc4[nH]3)n[nH]c2C1` [Example 16], the IC50 was 25 nM. With `CC1(C)CCc2c(-c3cc4cc(C(=O)N5CCCC5)ccc4[nH]3)n[nH]c2C1` [Example 332], the 50% inhibitory concentration (IC50) was 46 nM. On to `CN(C(=O)C1CCCC1)c1ccc2cc(-c3n[nH]c4c3CCC(C)(C)C4)[nH]c2c1` [Example 33], for which the IC50 is 11 nM. On to `CC(C(=O)N(C)c1ccc2cc(-c3n[nH]c4c3CCC(C)(C)C4)[nH]c2c1)N1CCCCC1=O` (stereo not shown) [Example 133], for which the IC50 is 10 nM.

Take `CC(C(=O)N(C)c1ccc2cc(-c3n[nH]c4c3CCC(C)(C)C4)[nH]c2c1)N1CCOCC1=O` (stereo not shown) [Example 147]: the half-inhibitory concentration (IC50) was 8 nM. With `CC(=O)N(C)CC(=O)N(C)c1ccc2cc(-c3n[nH]c4c3CCC(C)(C)C4)[nH]c2c1` [Example 192], the half-maximal inhibitory concentration (IC50) is 2 nM. The result for `COCC(=O)N(C)c1ccc2cc(-c3n[nH]c4c3CC[C@@H](C)C4)[nH]c2c1` [Example 353] reads 16 nM; that for `CC(C)CC(=O)N(C)c1ccc2cc(-c3n[nH]c4c3CCCC4)[nH]c2c1` [Example 361], 20 nM; that for `CO[C@H]1CC[C@H](C(=O)N(C)c2ccc3cc(-c4n[nH]c5c4CCC(C)(C)C5)[nH]c3c2)CC1` [Example 82], 7 nM.
